Series [1] concerns ELuc (Emerald Luc) luciferase (originating from Hikari Kometsuki). Nature of the series: Km value of ELuc luciferase relative to D-luciferin and ATP (luminometer, photon count). It is filed as biochemical. Particulars: 8 mM MgSO4, 0.1M Tris-HCl pH 8.0. Here is the method:
(§1) As for the blank, the buffer described above was employed. FIG. 6 illustrates the ultraviolet/visible light absorption spectrum of […].
(§2) Then, in order to calculate the concentration of ATP, the ultraviolet/visible light absorption spectrum of ATP was measured. In this measurement, the spectrum was measured using a diluted (by 2000 times) solution (in 0.1M Citrate/0.2M Na2HPO4 buffer, pH=7.0) of ATP stock solution (about 100 mM). As for the blank, the buffer described above was employed. FIG. 7 illustrates the ultraviolet/visible light absorption spectrum of ATP.
(§3) (Experiment Method 2: Purification of Various Kinds of Luciferase)
(§4) The purification of luciferase was performed according to the following procedure after establishing a luciferase-purification system utilizing affinity chromatography.
(§5) (Procedure of Transfection of Luciferase Expression Vector to Coli Bacillus)
(§6) First of all, 0.5 μL of luciferase expression vector was introduced into 50 μL of coli bacillus (JM109(DE3)). Then, the resultant liquid was subjected to a thermostatic treatment consisting of ice-cooling for 10 minutes, heating at 42° C. for one minute and ice-cooling for two minutes. Then, 2 μL of the resultant coli bacillus solution was added to 1 mL of an SOC culture medium.
(§7) Subsequently, the resultant solution of coli bacillus/SOC culture medium mixture was subjected to shaking at 37° C. for 20 minutes and to incubation. Then, 100 μL of the resultant solution was streaked onto an LB culture medium plate (Ampicillin 100 μg/mL+) and subjected to incubation overnight at 37° C.
(§8) (Purification of Luciferase by Means of Affinity Chromatography)
(§9) Then, the coli bacillus was fractured to obtain a raw extract, from which luciferase was purified by means of affinity chromatography.
(§10) Namely, first of all, a suspension of coli bacillus was subjected to centrifugal separation at 15000 rpm for 5 minutes to recover the pellets of coli bacillus, which was then suspended in 10 mL of TBS cooled to 4° C. Subsequently, by making use of French Pressure Cell, the fungus body was fractured. The resultant fungus body-fractured liquid was subjected to centrifugal separation (15000 rpm, 10 minutes) to remove settled residues and to recover a supernatant liquid.
(§11) Subsequently, 2 mL of TBS was added to a column having 2 mL of bed volume and subjected to filtration. Then, 500 μL of a Ni-Agar suspension and 2 mL of TBS were added to the column and the TBS was allowed to gravitationally drop (column equilibration). The supernatant liquid thus recovered was added to the column and allowed to gravitationally drop. Incidentally, the operation until the drop of the supernatant liquid was completed was performed inside a refrigerator at a temperature of 4° C. […]

Series [2] concerns the target GL3 luciferase (originating from firefly) (Photinus pyralis, UniProt P08659, K549A/L550V/N119G/N50D/S548I). Kind of series: Km value of GL3 luciferase relative to D-luciferin and ATP (luminometer, photon count). In kind it is biochemical. Particulars: read-out: Km value of GL3 relative to ATP, 10-1280 μM ATP, 1 mM D-luciferin, 8 mM MgSO4, 0.1M Tris-HCl pH 8.0. As to the method:
as §1, §2, §3, §4, §5
First of all, 0.5 μL of luciferase expression vector was introduced into 50 μL of coli bacillus (JM109(DE3)). Then, the resultant liquid was subjected to a thermostatic treatment consisting of ice-cooling for 10 minutes, heating at 42° C. for one minute and ice-cooling for two minutes. Then, 2 μL of the resultant coli bacillus solution was added to 1 mL of an SOC culture medium. […]

Series [3] has as its system CBR luciferase (originating from Hikari Kometsuki). Kind of series: Km value of CBR luciferase relative to D-luciferin and ATP (luminometer, photon count). In kind it is biochemical. Particulars: 8 mM MgSO4, 0.1M Tris-HCl pH 8.0. As to the method: as §1, §2, §3, §4, §5, §6, §7, §8, §9
(§12) Namely, first of all, a suspension of coli bacillus was subjected to centrifugal separation at 15000 rpm for 5 minutes to recover the pellets of coli bacillus, which was then suspended in 10 mL of TBS cooled to 4° C. Subsequently, by making use of French Pressure Cell, the fungus body was fractured. […]

Series [4] deals with CBG luciferase (originating from Hikari Kometsuki). Kind of series: Km value of CBG luciferase relative to D-luciferin and ATP (luminometer, photon count). Particulars: 8 mM MgSO4, 0.1M Tris-HCl pH 8.0. In kind it is biochemical. As to the method: as §1, §2, §3, §4, §5, §6, §7, §8, §9, §12
Series [5] deals with Yaeyama luciferase (Yaeyama Hime firefly, Luciola filiformis yayeyamana; DNA Sequence No. 1). Kind of series: Km value of Yaeyama luciferase relative to D-luciferin and ATP (luminometer, photon count). In kind it is biochemical. The following applies: 8 mM MgSO4, 0.1M Tris-HCl pH 8.0. Here is the method: as §1, §2, §3, §4, §5, §6, §7, §8, §9, §10, §11
For the next series, the system named is intercellular ATP. Particulars: apoptosis induced by STS; cited from earlier work.
Series [6] is described as follows: Luminescence pattern measured with a luminometer (time to peak luminescence after addition of luciferin). In kind it is biochemical. The source says: Further, with respect to the luminescence pattern obtained from the measurement using a luminometer also, the results obtained from the luciferase originated from Hikari Kometsuki were found different from the results obtained from the firefly-derived luciferase.
Although data are not shown herein, the results obtained from the Luciferase originated from Hikari Kometsuki were found different from the results obtained from the firefly-derived luciferase with respect also to the luminescence pattern obtained from the measurement using a luminometer.

Series [7] is described as follows: Km value of luciferase relative to ATP (luminometer photon count, Example 2). In kind it is biochemical. Here is the method:
(Experiment Method 4: Calculation of Km Value of Various Kind of Luciferase Relative to ATP)
Then, a 0.1M Tris-HCl (pH=8.0) solution of 100 μg/ml luciferase was prepared. The ATP solutions having the aforementioned concentrations were respectively aliquoted to a vessel having 96 wells, thus creating wells each containing 50 μl of the ATP solution.
Then, the luciferase solution was connected with a standard pump of luminometer, after which a program was prepared so as to initiate the measurement concurrent with the addition of 50 μl of the luciferase solution to each of the wells.
Subsequently, the program was started to measure the photon-count value at each ATP concentration. Incidentally, the measurement was repeated five times at each concentration of ATP.
Based on the results obtained, Lineweaver-Burk plot and Hanes-Woolf plot were prepared.

Substrate in series [8]: O=C(O)[C@H]1CSC(c2nc3ccc(O)cc3s2)=N1
Kind of series: purified protein, by the assay type. Particulars: 5-640 μM D-luciferin, 4 mM ATP, 8 mM MgSO4, 0.1M Tris-HCl pH 8.0.

Substrate in series [9]: Nc1ncnc2c1ncn2[C@@H]1O[C@H](COP(=O)(O)OP(=O)(O)OP(=O)(O)O)[C@@H](O)[C@H]1O
Kind of series: purified protein, by the assay type. The following applies: 10-1280 μM ATP, 1 mM D-luciferin, 8 mM MgSO4, 0.1M Tris-HCl pH 8.0. In kind it is biochemical, Luciola cruciata. Here is the method: as §1, §2
By making use of the absorbency (259 nm, 0.359±0.004, n=10) obtained from the spectrum of FIG. 7, the concentration of the ATP stock solution was calculated (ATP: λmax=259 nm, ε=15400, pH=7.0). As a result of the calculation, the concentration of the ATP stock solution was found as being 46.6 mM. […]
Subsequently, the elute was moved 400 μL by 400 μL to a centrifugal concentration tube (SUPREC™-02, available from TaKaRa Co., Ltd. (exclusion limit molecular weight: 30,000)) and then subjected to centrifugal separation (5000 rpm, 30 minutes) until the elute was concentrated to about 100 μL. Thereafter, the absorbency of the concentrated elute was measured by means of a plate reader and the concentration of luciferase was calculated from the calibration curve which was prepared by making use of BSA. […]

Like-named read-outs stand apart in the source and are kept apart here.

The values below come from US8163661B2, “Luminescence measurement system” (Olympus Corporation, priority 2007, dated 2012).

Sequence of GL3 luciferase (originating from firefly) (P08659 whole entry N50D/N119G/S548I/K549A/L550V): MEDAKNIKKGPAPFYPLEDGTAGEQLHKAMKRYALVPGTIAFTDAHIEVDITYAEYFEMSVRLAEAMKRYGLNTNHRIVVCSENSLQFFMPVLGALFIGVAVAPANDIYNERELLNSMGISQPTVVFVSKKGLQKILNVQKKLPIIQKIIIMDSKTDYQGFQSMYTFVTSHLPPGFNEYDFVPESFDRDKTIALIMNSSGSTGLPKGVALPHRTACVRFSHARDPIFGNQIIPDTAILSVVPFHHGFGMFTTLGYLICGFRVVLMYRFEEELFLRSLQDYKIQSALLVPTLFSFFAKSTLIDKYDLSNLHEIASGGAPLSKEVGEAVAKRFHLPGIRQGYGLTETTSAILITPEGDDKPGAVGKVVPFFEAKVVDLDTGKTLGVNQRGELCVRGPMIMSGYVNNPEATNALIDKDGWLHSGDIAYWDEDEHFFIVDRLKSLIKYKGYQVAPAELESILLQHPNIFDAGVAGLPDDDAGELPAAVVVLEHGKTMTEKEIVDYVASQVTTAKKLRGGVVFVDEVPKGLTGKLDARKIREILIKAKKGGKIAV

Regarding `Nc1ncnc2c1ncn2[C@@H]1O[C@H](COP(=O)(O)OP(=O)(O)OP(=O)(O)O)[C@@H](O)[C@H]1O` [ATP], the Michaelis constant (Km) in series [1] (Hanes-Woolf plot, 10-1280 μM ATP, 1 mM D-luciferin, read-out: Km value of ELuc relative to ATP) worked out at 250 µM; in [1] (Lineweaver-Burk plot, 10-1280 μM ATP, 1 mM D-luciferin, read-out: Km value of ELuc relative to ATP) it was 364 µM; in series [2] (Hanes-Woolf plot), 200 µM; in series [2] (Lineweaver-Burk plot), 200 µM; in series [3] (Hanes-Woolf plot, 10-1280 μM ATP, 1 mM D-luciferin, read-out: Km value of CBR relative to ATP), 130 µM; in series [3] (Lineweaver-Burk plot, 10-1280 μM ATP, 1 mM D-luciferin, read-out: Km value of CBR relative to ATP), 110 µM. In addition, the Michaelis constant (Km) in series [4] (Hanes-Woolf plot, 10-1280 μM ATP, 1 mM D-luciferin, read-out: Km value of CBG relative to ATP) came to 290 µM; in series [5] (Hanes-Woolf plot, 10-1280 μM ATP, 1 mM D-luciferin, read-out: Km value of Yaeyama relative to ATP) it was 400 µM; in series [5] (Lineweaver-Burk plot, 10-1280 μM ATP, 1 mM D-luciferin, read-out: Km value of Yaeyama relative to ATP) it was 400 µM.
Take `O=C(O)[C@H]1CSC(c2nc3ccc(O)cc3s2)=N1` [D-luciferin]: the Michaelis-Menten constant (Km) was 15 µM in series [1] (read-out: Km value of ELuc relative to D-luciferin, Hanes-Woolf plot, 5-640 μM D-luciferin, 4 mM ATP); 15 µM in [1] (read-out: Km value of ELuc relative to D-luciferin, Lineweaver-Burk plot, 5-640 μM D-luciferin, 4 mM ATP); 36.4 µM in [3] (read-out: Km value of CBR relative to D-luciferin, Lineweaver-Burk plot, 5-640 μM D-luciferin, 4 mM ATP); 10.5 µM in [4] (read-out: Km value of CBG relative to D-luciferin, Hanes-Woolf plot, 5-640 μM D-luciferin, 4 mM ATP); 10.5 µM in series [4] (read-out: Km value of CBG relative to D-luciferin, Lineweaver-Burk plot, 5-640 μM D-luciferin, 4 mM ATP); 100 µM in series [5] (read-out: Km value of Yaeyama relative to D-luciferin, Hanes-Woolf plot, 5-640 μM D-luciferin, 4 mM ATP). The Km in series [5] (read-out: Km value of Yaeyama relative to D-luciferin, Lineweaver-Burk plot, 5-640 μM D-luciferin, 4 mM ATP) worked out at 100 µM.
For the molecule `CN[C@@H]1C[C@H]2O[C@@](C)([C@@H]1OC)n1c3ccccc3c3c4c(c5c6ccccc6n2c5c31)C(=O)NC4` [STS, Staurosporine], the “intercellular ATP concentration at the initial stage of apoptosis” value with intercellular ATP is reported as “caused to increase”.

B1: Yaeyama: luciferase originated from Yaeyama Hime firefly (Luciola filiformis yayeyamana), DNA sequence of Sequence No. 1 (protein)
chain: MEMEKEENVVYGPQPFYPIEAGSAGIQLHKYMHQYAQLGAIAFSNALTGVDISYQEYFDITCRLAEAMKNYGMTQEGRIALCSENCEEFFIPVVAGLYIGVGVAPTNEIYTLRELNHSLGIAEPTIVFSSRKGLPKVLEVQKNVTCIKTIVILDSKVNFGGYDCVETFIKKNVPSGFQPSSFKPMDVKNRKEHLALLMNSSGSTGLPKGVQITHEGTVTRFSHAKDPIYGNQVSPGTAILTVVPFHHGFGMFTTLGYFACGYRVVMLTKFDEELFLKTLQDYKCTSVILVPTLFGILNKSELIDKFDLSNLTEIASGGAPLAKEVGEAVARRFNLPGIRQGYGLTETTSAFIITPEGDDKPGASGKVVPLFKVKVIDLDTKKTLGVNRRGEICVKGPSLMKGYVRNPEATKEIIDDEGWMHTGDIGYYDEDEHFFIVDRLKSLIKYKGYQVPPAELESVLLQHPNIFDAGVAGVPDPEAGELPGAVVVLEKGKTMTEKQIVEYVNSQVVNHKRLRGGVRFVDEVPKGLTGKIDAKVIREILKKPQSKM
modifications: Luciola filiformis yayeyamana
For B1, the “time of peak luminescence intensity after the addition of luciferin” value in [6] was in the range of 0.5 to 1 s. In [7], the “affinity to ATP as compared with other kinds of luciferase” value was “relatively low in affinity to ATP”.

B2: Genji luciferase (Genji firefly, Luciola cruciata) (Nipponoluciola cruciata) (protein)
chain: MENMENDENIVVGPKPFYPIEEGSAGTQLRKYMERYAKLGAIAFTNAVTGVDYSYAEYLEKSCCLGKALQNYGLVVDGRIALCSENCEEFFIPVIAGLFIGVGVAPTNEIYTLRELVHSLGISKPTIVFSSKKGLDKVITVQKTVTTIKTIVILDSKVDYRGYQCLDTFIKRNTPPGFQASSFKTVEVDRKEQVALIMNSSGSTGLPKGVQLTHENTVTRFSHARDPIYGNQVSPGTAVLTVVPFHHGFGMFTTLGYLICGFRVVMLTKFDEETFLKTLQDYKCTSVILVPTLFAILNKSELLNKYDLSNLVEIASGGAPLSKEVGEAVARRFNLPGVRQGYGLTETTSAIIITPEGDDKPGASGKVVPLFKAKVIDLDTKKSLGPNRRGEVCVKGPMLMKGYVNNPEATKELIDEEGWLHTGDIGYYDEEKHFFIVDRLKSLIKYKGYQVPPAELESVLLQHPSIFDAGVAGVPDPVAGELPGAVVVLESGKNMTEKEVMDYVASQVSNAKRLRGGVRFVDEVPKGLTGKIDGRAIREILKKPVAKM
For the molecule B2, the Michaelis constant (Km) in series [8] (other: Hanes-Woolf plot) was 75.0 µM; in series [8] (other: Lineweaver-Burk plot), 75.0 µM; in series [9] (other: Hanes-Woolf plot) it was 500 µM; in series [9] (other: Lineweaver-Burk plot), 500 µM.

For orientation: Km means the concentration of substrate that gives half-maximal velocity.
